Results on 23 compounds are retold here after PubChem BioAssay AID330 (DTP/NCI, 2004).

This assay has as its system P388 leukemia ip, CD2F1 mice, survival T/C. The experiment in a line: NCI In Vivo Anticancer Drug Screen. Data for tumor model P388 Leukemia (intraperitoneal) in CD2F1 (CDF1) mice. The conditions noted are these: endpoint: median survival time, higher = longer survival. The essentials:
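Mice carrying the transplanted tumor received test compound or vehicle. Survival was recorded in each group, and the value is the treated-group measurement divided by that of the vehicle-treated control group.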

The mark [1] stands for this setting: dose: 100.0 mg/kg/injection, schedule: Q01DX001 (ip), vehicle: Klucel (hydroxypropylcellulose) (HPC).
Setting [2] is: dose: 200.0 mg/kg/injection, schedule: Q01DX001 (ip), vehicle: Klucel (hydroxypropylcellulose) (HPC).
The mark [3] stands for this setting: dose: 400.0 mg/kg/injection, schedule: Q01DX001 (ip), vehicle: Klucel (hydroxypropylcellulose) (HPC).
[4] abbreviates: dose: 100.0 mg/kg/injection, schedule: Q04DX003 (ip), vehicle: Klucel (hydroxypropylcellulose) (HPC).
Where [5] appears, read: dose: 200.0 mg/kg/injection, schedule: Q04DX003 (ip), vehicle: Klucel (hydroxypropylcellulose) (HPC).
Where [6] appears, read: dose: 400.0 mg/kg/injection, schedule: Q04DX003 (ip), vehicle: Klucel (hydroxypropylcellulose) (HPC).
[7] abbreviates: dose: 12.5 mg/kg/injection, schedule: Q01DX009 (ip), vehicle: saline.
The mark [8] stands for this setting: dose: 25.0 mg/kg/injection, schedule: Q01DX009 (ip), vehicle: saline.
[9] abbreviates: dose: 50.0 mg/kg/injection, schedule: Q01DX009 (ip), vehicle: saline.
[10] abbreviates: dose: 60.0 mg/kg/injection, schedule: Q01DX005 (ip), vehicle: Klucel (hydroxypropylcellulose) (HPC).
The mark [11] stands for this setting: dose: 120.0 mg/kg/injection, schedule: Q01DX005 (ip), vehicle: Klucel (hydroxypropylcellulose) (HPC).
[12] abbreviates: dose: 240.0 mg/kg/injection, schedule: Q01DX005 (ip), vehicle: Klucel (hydroxypropylcellulose) (HPC).
Setting [13] is: dose: 60.0 mg/kg/injection, schedule: Q01DX005 (ip), vehicle: saline with Tween-80.
Where [14] appears, read: dose: 120.0 mg/kg/injection, schedule: Q01DX005 (ip), vehicle: saline with Tween-80.
Where [15] appears, read: dose: 12.5 mg/kg/injection, schedule: Q01DX005 (ip), vehicle: Klucel (hydroxypropylcellulose) (HPC).

Each structure is given as a SMILES string. Several values for one entry are separate records, joined by “and”; a condition that tells them apart may be missing. Equal values may be shown once. Inconclusive results and toxic doses are left out.

With `Cc1cccc(-n2c(-c3ccccc3)cs/c2=N\N=C2/CSC(=O)N2Cc2ccccc2)c1`, the T/C is 101 % of control under setting [1], 101 % of control under setting [2] and 99 % of control under setting [3].
As to `O=C1c2ccccc2C2N1CCC1CCc3ccccc3N12` (centres undefined), the T/C runs as follows: (dose: 50.0 mg/kg/injection, schedule: Q01DX009 (ip), vehicle: saline with Tween-80) 92 % of control; (dose: 100.0 mg/kg/injection, schedule: Q01DX009 (ip), vehicle: saline with Tween-80) 91 % of control; (dose: 200.0 mg/kg/injection, schedule: Q01DX009 (ip), vehicle: saline with Tween-80) 89 % of control.
Regarding `CCOC(=O)CC1(C)NC(=O)NC1=O` (centres undefined), the T/C by setting is: (dose: 50.0 mg/kg/injection, schedule: Q04DX003 (ip), vehicle: Klucel (hydroxypropylcellulose) (HPC)) 108 % of control; under setting [4], 100 % of control; under setting [5], 101 % of control; under setting [6], 100 % of control.
`O=C(CCc1cc2[nH]c1c(-c1ccccc1)c1nc(c(-c3ccccc3)c3ccc([nH]3)c(-c3ccccc3)c3nc(c2-c2ccccc2)C=C3)C=C1)OCCCc1cccnc1`: the T/C is, setting by setting: (dose: 50.0 mg/kg/injection, schedule: Q01DX001 (ip), vehicle: Klucel (hydroxypropylcellulose) (HPC)) 100 % of control; under setting [1], 105 % of control; under setting [2], 100 % of control; under setting [3], 91 % of control.
Regarding `CC(C)[N+](C)(C)CC(O)COc1ccccc1-c1ccccc1` (centres undefined), the T/C is, setting by setting: under setting [7], 100 % of control; under setting [8], 98 % of control; under setting [9], 93 % of control and 97 % of control.
On to `Brc1ccc(/C=C/c2ccnnc2)cc1`, for which the T/C is 93 % of control under setting [9]; 94 % of control (dose: 100.0 mg/kg/injection, schedule: Q01DX009 (ip), vehicle: saline); 100 % of control (dose: 200.0 mg/kg/injection, schedule: Q01DX009 (ip), vehicle: saline).
For the compound `O=C(COc1ccc([N+](=O)[O-])cc1)NN1C(=O)c2ccc([N+](=O)[O-])cc2C1=O`, the T/C reads like this: under setting [10], 92 % of control; under setting [11], 91 % of control; under setting [12], 87 % of control.
As for `Cc1noc(C)c1C1(Br)C(Br)CCCC1Br` (centres undefined), the T/C (dose: 100.0 mg/kg/injection, schedule: Q04DX002 (ip), vehicle: saline with Tween-80) was 105 % of control; the T/C (dose: 200.0 mg/kg/injection, schedule: Q04DX002 (ip), vehicle: saline with Tween-80) is 104 % of control; the T/C (dose: 400.0 mg/kg/injection, schedule: Q04DX002 (ip), vehicle: saline with Tween-80) was 114 % of control.
As for `C=C(C)C#CCN(CCO)C(C)C`, the T/C is, setting by setting: under setting [13], 102 % of control; under setting [14], 98 % of control.
Turning to `CN(C)c1ncnc2c1ncn2C1CCCCO1` (centres undefined), the T/C under setting [15] is 103 % of control; the T/C (dose: 25.0 mg/kg/injection, schedule: Q01DX005 (ip), vehicle: Klucel (hydroxypropylcellulose) (HPC)) is 105 % of control; the T/C (dose: 50.0 mg/kg/injection, schedule: Q01DX005 (ip), vehicle: Klucel (hydroxypropylcellulose) (HPC)) is 100 % of control.
For `COC(=O)c1ccc(C(=O)OC)c2nn3c(N)nnc3nc12`, the T/C runs as follows: (dose: 60.0 mg/kg/injection, schedule: Q01DX005 (ip), vehicle: saline) 110 % of control; (dose: 120.0 mg/kg/injection, schedule: Q01DX005 (ip), vehicle: saline) 100 % of control; (dose: 240.0 mg/kg/injection, schedule: Q01DX005 (ip), vehicle: saline) 100 % of control.
`CC(C)(C)NC/C(C#N)=C\c1ccccc1`: the T/C was 102 % of control (dose: 25.0 mg/kg/injection, schedule: Q01DX001 (ip), vehicle: saline with Tween-80); 99 % of control (dose: 50.0 mg/kg/injection, schedule: Q01DX001 (ip), vehicle: saline with Tween-80); 97 % of control (dose: 100.0 mg/kg/injection, schedule: Q01DX001 (ip), vehicle: saline with Tween-80).
Consider `Cc1cc(N2C(=O)CSC2=S)ccc1Cl`, for which the T/C by setting is: (dose: 50.0 mg/kg/injection, schedule: Q01DX009 (ip), vehicle: suspension in saline) 105 % of control; (dose: 100.0 mg/kg/injection, schedule: Q01DX009 (ip), vehicle: suspension in saline) 99 % of control; (dose: 200.0 mg/kg/injection, schedule: Q01DX009 (ip), vehicle: suspension in saline) 106 % of control.
For `Cc1ccc(N=Nc2ccc(N(CCCl)CCCl)cc2C)c(C(=O)O)c1`, the T/C is 153 % of control and 177 % of control (dose: 12.5 mg/kg/injection, schedule: Q01DX009 (ip), vehicle: saline with Tween-80); 123 % of control (dose: 25.0 mg/kg/injection, schedule: Q01DX009 (ip), vehicle: saline with Tween-80).
Turning to `CCOC(=O)CON1C(=O)CCC1=O`, the T/C reads like this: (dose: 25.0 mg/kg/injection, schedule: Q01DX005 (ip), vehicle: saline) 102 % of control; (dose: 50.0 mg/kg/injection, schedule: Q01DX005 (ip), vehicle: saline) 102 % of control; (dose: 100.0 mg/kg/injection, schedule: Q01DX005 (ip), vehicle: saline) 100 % of control; (dose: 200.0 mg/kg/injection, schedule: Q01DX005 (ip), vehicle: saline) 105 % of control.
`CCN(Cc1c(C)[nH]c2cc(N(C)C)ccc2c1=O)Cc1c(C)[nH]c2cc(N(C)C)ccc2c1=O`: the T/C runs as follows: under setting [10], 90 % of control; under setting [11], 92 % of control; under setting [12], 91 % of control.
With `CC(C)(/C=C/c1ccccc1)N=Cc1ccccc1`, the T/C runs as follows: under setting [13], 100 % of control; under setting [14], 104 % of control; (dose: 240.0 mg/kg/injection, schedule: Q01DX005 (ip), vehicle: saline with Tween-80) 98 % of control.
In the case of `O=S1(=O)NC(=NC2CCCCC2)c2ccccc21`, the T/C is 105 % of control (dose: 50.0 mg/kg/injection, schedule: Q01DX005 (ip), vehicle: saline with Tween-80); 105 % of control (dose: 100.0 mg/kg/injection, schedule: Q01DX005 (ip), vehicle: saline with Tween-80); 99 % of control (dose: 200.0 mg/kg/injection, schedule: Q01DX005 (ip), vehicle: saline with Tween-80).
Turning to `Cc1c[nH]c(=O)cn1`, the T/C was 95 % of control under setting [4], 90 % of control under setting [5] and 95 % of control under setting [6].
For the compound `N=C(N)c1ccc(N=Nc2c(O)ccc3cc(O)ccc23)cc1`, the T/C by setting is: (dose: 3.12 mg/kg/injection, schedule: Q01DX005 (ip), vehicle: Klucel (hydroxypropylcellulose) (HPC)) 104 % of control; (dose: 6.25 mg/kg/injection, schedule: Q01DX005 (ip), vehicle: Klucel (hydroxypropylcellulose) (HPC)) 101 % of control and 102 % of control; under setting [15], 116 % of control (2×) and 95 % of control.
For the compound `S=P(N1CCCC1)(N1CC1)N1CC1`, the T/C reads like this: (dose: 2.2 mg/kg/injection, schedule: Q01DX009 (ip), vehicle: saline) 111 % of control; (dose: 3.3 mg/kg/injection, schedule: Q01DX009 (ip), vehicle: saline) 155 % of control; (dose: 7.5 mg/kg/injection, schedule: Q01DX009 (ip), vehicle: saline) 177 % of control; (dose: 11.0 mg/kg/injection, schedule: Q04DX003 (ip), vehicle: saline with Tween-80) 104 % of control; (dose: 25.0 mg/kg/injection, schedule: Q04DX003 (ip), vehicle: saline with Tween-80) 200 % of control; (dose: 37.5 mg/kg/injection, schedule: Q04DX003 (ip), vehicle: saline with Tween-80) 90 % of control.
In the case of `COc1ccc(C(=O)Nc2ccccc2CCC2CCCCN2C)cc1` (centres undefined), the T/C is 95 % of control (dose: 6.25 mg/kg/injection, schedule: Q01DX009 (ip), vehicle: saline); 95 % of control under setting [7]; 92 % of control under setting [8]; 100 % of control (dose: 25.0 mg/kg/injection, schedule: Q01DX009 (ip), vehicle: suspension in saline).
Regarding `COC(=O)c1ccc(C)cc1C(=O)OC`, the T/C by setting is: (dose: 50.0 mg/kg/injection, schedule: Q04DX003 (ip), vehicle: saline with Tween-80) 100 % of control; (dose: 100.0 mg/kg/injection, schedule: Q04DX003 (ip), vehicle: saline with Tween-80) 100 % of control; (dose: 200.0 mg/kg/injection, schedule: Q04DX003 (ip), vehicle: saline with Tween-80) 104 % of control.
